Measurements reported in ChEMBL document CHEMBL4725396, “Discovery and optimization of pyrazolopyrimidine sulfamates as ATG7 inhibitors” (Bioorg Med Chem, 2020).

Columns and labels:
[1] = […] of autophagy in human H4 cells assessed as decrease in LC3B spot area by immunofluorescence assay; format: functional, cell-based
[2] = molecular target: T1, Ubiquitin-like modifier-activating enzyme ATG7 (Homo sapiens, UniProt O95352); test: Inhibition of recombinant His-tagged human ATG7 incubated for 105 mins in presence of GST-tagged ATG3 and Flag-tagged Gabarap and measured after 2 hrs by FRET assay relative to control
T1 sequence (O95352 whole entry): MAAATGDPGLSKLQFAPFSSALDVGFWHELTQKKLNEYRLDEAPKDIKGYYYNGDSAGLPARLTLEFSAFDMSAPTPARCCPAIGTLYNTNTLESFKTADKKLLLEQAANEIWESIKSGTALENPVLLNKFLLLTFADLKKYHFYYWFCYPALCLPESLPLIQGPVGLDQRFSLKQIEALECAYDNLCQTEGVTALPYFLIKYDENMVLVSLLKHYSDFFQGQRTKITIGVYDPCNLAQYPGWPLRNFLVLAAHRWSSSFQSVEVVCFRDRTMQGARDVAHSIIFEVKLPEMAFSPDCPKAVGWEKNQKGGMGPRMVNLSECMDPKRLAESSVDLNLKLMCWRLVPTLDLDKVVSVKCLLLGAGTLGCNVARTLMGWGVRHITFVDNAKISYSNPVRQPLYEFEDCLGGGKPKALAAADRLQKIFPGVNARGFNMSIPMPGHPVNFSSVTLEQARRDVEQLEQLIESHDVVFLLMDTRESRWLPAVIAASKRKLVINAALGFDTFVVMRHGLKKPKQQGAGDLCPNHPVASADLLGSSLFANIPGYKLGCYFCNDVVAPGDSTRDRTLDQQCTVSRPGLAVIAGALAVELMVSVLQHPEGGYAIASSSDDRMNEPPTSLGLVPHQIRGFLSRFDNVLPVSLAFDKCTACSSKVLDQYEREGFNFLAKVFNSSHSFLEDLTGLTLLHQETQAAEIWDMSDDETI

NCI-H1650 = test: Antiproliferative activity against human H1650 cells assessed as reduction in cell viability after 72 hrs by cell titer glow assay; format: cell-based; settings: NCI-H1650, 72 h
[3] = molecular target: T1, Ubiquitin-like modifier-activating enzyme ATG7; test: Inhibition of ATG7 in human 293HEK cells assessed as inhibition of ATG7:ATG8 thioester formation after 8 hrs by Western blot analysis; format: cell-based, HEK293
[4] = molecular target: T1, Ubiquitin-like modifier-activating enzyme ATG7; test: Inhibition of ATG7 in human 293HEK cells assessed as inhibition of ATG7:ATG8 thioester formation after 4 hrs by Western blot analysis; format: cell-based, HEK293
SK-OV-3 [5] = test: […] of autophagy in human SKOV3 cells assessed as accumulation of NRB1 by immunofluorescence assay; format: functional, cell-based
SK-OV-3 [6] = test: […] of autophagy in human SKOV3 cells assessed as accumulation of p62 by immunofluorescence assay; format: functional, cell-based
[7] = Inhibition of UAE (unknown origin)
[8] = Inhibition of NAE (unknown origin)
[9] = Inhibition of SAE (unknown origin)

Row | SMILES | IC50 [1] | IC50 [2] | EC50 (NCI-H1650) | IC50 [3] | IC50 [4] | EC50 (SK-OV-3 [5]) | EC50 (SK-OV-3 [6]) | IC50 [7] | IC50 [8] | IC50 [9]
1 | Nc1ncnc2c1c(Sc1cccc(Cl)c1)nn2[C@H]1C[C@H](O)[C@H](COS(N)(=O)=O)O1 | 1370 nM | 190 nM | > 50000 nM |  |  |  |  |  |  | 
2 | CSc1nn([C@@H]2O[C@@H](COS(N)(=O)=O)[C@@H](O)[C@@H]2F)c2ncnc(N)c12 | 2530 nM | 145 nM | > 50000 nM |  |  |  |  |  |  | 
3 | Nc1ncnc2c1c(OC(F)F)nn2[C@H]1C[C@H](O)[C@@H](COS(N)(=O)=O)O1 | 1770 nM | 100 nM | > 50000 nM | 545 nM |  |  |  |  |  | 
4 | CSc1nn([C@@H]2O[C@H](COS(N)(=O)=O)[C@@H](O)[C@@H]2F)c2ncnc(N)c12 | 977 nM | 41 nM | 5790 nM | 47 nM |  |  |  |  |  | 
5 | COc1nn([C@H]2C[C@H](O)[C@@H](COS(N)(=O)=O)O2)c2ncnc(N)c12 |  | 249 nM | 31500 nM |  |  |  |  |  |  | 
6 | Nc1ncnc2c1c(Sc1cn[nH]c1)nn2[C@@H]1O[C@H](COS(N)(=O)=O)[C@@H](O)[C@H]1O |  | 16 nM | > 50000 nM |  | 1280 nM |  |  |  |  | 
7 | Cc1cccc(Sc2nn([C@@H]3O[C@H](COS(N)(=O)=O)[C@@H](O)[C@@H]3F)c3ncnc(N)c23)c1 | 483 nM |  | 49100 nM | 51 nM | 140 nM |  |  |  |  | 
8 | CC(C)Sc1nn([C@H]2C[C@H](O)[C@@H](COS(N)(=O)=O)O2)c2ncnc(N)c12 | 1090 nM | 27 nM | > 50000 nM | 150 nM | 438 nM |  |  |  |  | 
9 | CSc1nn([C@H]2C[C@H](O)[C@@H](COS(N)(=O)=O)O2)c2ncnc(N)c12 | 938 nM | 48 nM | 10400 nM | 86 nM | 280 nM | > 20000 nM | 3000 nM | > 1000 nM | > 1000 nM | > 1000 nM
10 | CC(C)Sc1nn([C@H]2C[C@H](O)[C@H](COS(N)(=O)=O)O2)c2ncnc(N)c12 | 1920 nM | 57 nM | > 50000 nM |  | 468 nM |  |  |  |  | 
11 | Nc1ncnc2c1c(SCc1ccccc1)nn2[C@@H]1O[C@H](COS(N)(=O)=O)[C@@H](O)[C@H]1O |  | 23 nM | > 50000 nM | 322 nM | 604 nM |  |  |  |  | 
12 | CCSc1nn([C@H]2C[C@H](O)[C@@H](COS(N)(=O)=O)O2)c2ncnc(N)c12 | 1360 nM | 52 nM | > 50000 nM |  | 367 nM | > 20000 nM | 2300 nM | > 1000 nM | > 1000 nM | > 1000 nM
13 | Nc1ncnc2c1c(Sc1cccc(Cl)c1)nn2[C@H]1C[C@H](O)[C@@H](COS(N)(=O)=O)O1 | 1150 nM | 104 nM | > 50000 nM |  | 499 nM |  |  |  |  | 
14 | Nc1ncnc2c1c(Sc1ccc3c(c1)CCC3)nn2[C@H]1C[C@H](O)[C@@H](COS(N)(=O)=O)O1 | 710 nM | 66 nM | > 50000 nM |  |  |  |  |  |  | 
15 | Cc1cccc(Sc2nn([C@@H]3O[C@H](COS(N)(=O)=O)[C@@H](O)[C@H]3O)c3ncnc(N)c23)c1 |  | 18 nM | > 50000 nM | 178 nM |  |  |  |  |  | 
16 | CSc1nn([C@H]2C[C@H](O)[C@H](COS(N)(=O)=O)O2)c2ncnc(N)c12 | 1260 nM | 124 nM | > 50000 nM |  |  |  |  |  |  | 
17 | Cc1cccc(Sc2nn([C@H]3C[C@H](O)[C@@H](COS(N)(=O)=O)O3)c3ncnc(N)c23)c1 | 1260 nM | 95 nM | > 50000 nM |  | 422 nM |  |  |  |  | 
18 | Nc1ncnc2c1c(Sc1cccc(Cl)c1)nn2[C@@H]1O[C@H](COS(N)(=O)=O)[C@@H](O)[C@@H]1F | 534 nM | 31 nM | 39700 nM | 56 nM | 198 nM |  |  |  |  | 
19 | Nc1ncnc2c1c(Sc1ccc3c(c1)CCC3)nn2[C@H]1C[C@H](O)[C@H](COS(N)(=O)=O)O1 | 996 nM | 156 nM | > 50000 nM |  |  |  |  |  |  | 
20 | Nc1ncnc2c1cnn2[C@@H]1O[C@H](COS(N)(=O)=O)[C@@H](O)[C@H]1O |  | 457 nM | 75 nM |  |  |  |  |  |  | 
21 | Nc1ncnc2c1c(CCc1ccccc1)nn2[C@@H]1O[C@H](COS(N)(=O)=O)[C@@H](O)[C@H]1O |  | 351 nM | > 50000 nM |  |  |  |  |  |  | 
22 | Cc1ccc(Sc2nn([C@H]3C[C@H](O)[C@@H](COS(N)(=O)=O)O3)c3ncnc(N)c23)c(F)c1 | 533 nM | 80 nM | > 50000 nM |  |  |  |  |  |  | 
23 | Nc1ncnc2c1c(Sc1ccccc1)nn2[C@@H]1O[C@H](COS(N)(=O)=O)[C@@H](O)[C@H]1O |  | 29 nM | > 50000 nM | 201 nM |  |  |  |  |  | 
24 | Cc1ccc(Sc2nn([C@H]3C[C@H](O)[C@H](COS(N)(=O)=O)O3)c3ncnc(N)c23)c(F)c1 | 659 nM | 62 nM | > 50000 nM |  |  | 9400 nM | 3000 nM | > 1000 nM | > 1000 nM | > 1000 nM

More lines, main results first:

Row | IC50 [1] | IC50 [2] | EC50 (NCI-H1650) | IC50 [3] | IC50 [4] | EC50 (SK-OV-3 [5]) | EC50 (SK-OV-3 [6]) | IC50 [7] | IC50 [8] | SMILES | IC50 [9]
25 | 727 nM | 20 nM | 22400 nM | 56 nM | 199 nM |  |  |  |  | CC(C)Sc1nn([C@@H]2O[C@H](COS(N)(=O)=O)[C@@H](O)[C@@H]2F)c2ncnc(N)c12 | 
26 |  | 264 nM | > 50000 nM | 1280 nM |  |  |  |  |  | Nc1ncnc2c1c(OCc1ccccc1)nn2[C@@H]1O[C@H](COS(N)(=O)=O)[C@@H](O)[C@H]1O | 
27 |  | 2600 nM | > 50000 nM |  |  |  |  |  |  | CC(C)Oc1nn([C@@H]2O[C@H](COS(N)(=O)=O)[C@@H](O)[C@H]2O)c2ncnc(N)c12 | 
28 | 2300 nM | 29 nM | 10000 nM | 162 nM | 479 nM |  |  |  |  | Nc1ncnc2c1c(OC(F)F)nn2[C@@H]1O[C@H](COS(N)(=O)=O)[C@@H](O)[C@H]1O | 
29 |  | 43 nM | 18300 nM |  | 453 nM |  |  |  |  | Nc1ncnc2c1c(OC(F)F)nn2[C@@H]1O[C@H](COS(N)(=O)=O)[C@@H](O)[C@@H]1F | 
30 | 4230 nM | 17 nM | > 50000 nM | 284 nM | 1250 nM |  |  |  |  | CC(C)Sc1nn([C@@H]2O[C@H](COS(N)(=O)=O)[C@@H](O)[C@H]2O)c2ncnc(N)c12 | 
31 | 2600 nM | 89 nM | 5940 nM | 335 nM |  |  |  | > 1000 nM | > 1000 nM | COc1nn([C@@H]2O[C@H](COS(N)(=O)=O)[C@@H](O)[C@H]2O)c2ncnc(N)c12 | > 50000 nM
32 |  | 177 nM | 33900 nM | 317 nM |  |  |  |  |  | COc1nn([C@@H]2O[C@H](COS(N)(=O)=O)[C@@H](O)[C@@H]2F)c2ncnc(N)c12 | 
33 | 1500 nM | 14 nM | 1540 nM | 83 nM | 431 nM |  |  |  |  | CSc1nn([C@@H]2O[C@H](COS(N)(=O)=O)[C@@H](O)[C@H]2O)c2ncnc(N)c12 | 
34 | 6000 nM | 325 nM | > 50000 nM |  | 1280 nM |  |  |  |  | CSc1nn([C@@H]2O[C@@H](COS(N)(=O)=O)[C@@H](O)[C@H]2O)c2ncnc(N)c12 | 
35 | 20100 nM | 129 nM | > 50000 nM | 882 nM | 882 nM |  |  |  |  | CC(C)Sc1nn([C@@H]2O[C@@H](COS(N)(=O)=O)[C@@H](O)[C@H]2O)c2ncnc(N)c12 | 
36 |  | 255 nM | 49400 nM |  |  |  |  |  |  | CCOc1nn([C@@H]2O[C@H](COS(N)(=O)=O)[C@@H](O)[C@H]2O)c2ncnc(N)c12 | 
37 |  | 22 nM | 15400 nM | 160 nM |  |  |  |  |  | CCSc1nn([C@@H]2O[C@H](COS(N)(=O)=O)[C@@H](O)[C@H]2O)c2ncnc(N)c12 | 
38 |  | 84 nM | > 50000 nM |  |  |  |  |  |  | Nc1ncnc2c1c(O)nn2[C@@H]1O[C@H](COS(N)(=O)=O)[C@@H](O)[C@H]1O | 
